Results on 27 compounds are retold here after PubChem BioAssay AID434946 (Broad Institute, 2010).

Calls of active or inactive are those of the source.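 The calls were made as follows: active = compounds lowering the growth signal with a fitted EC50 no more than tenfold above the top dose; inconclusive = flat fit with partial effect, or a poor fit; inactive = the rest.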

This assay concerns NIH 3T3 fibroblast viability, Alamar Blue fluorescence, 48 h. Put plainly: NIH 3T3 fibroblast cytotoxicity, no fluconazole, dose response, cytotoxicity control for Candida fluconazole-potentiator project, cell-based, alamar blue fluorescence (AID 434946). A general note: Alamar Blue is a resazurin reagent that responds to reducing activity.
Usually EC50 stands for the concentration at which the effect is half-maximal. Turning to `O=C(Nc1nnc(SCc2ccc(Cl)cc2)s1)c1ccc2ccccc2n1`, the EC50 is > 26 µM (inactive).
As to `Cc1oc2c(F)c(F)c(F)c(F)c2c1S(=O)(=O)Nc1cccc(C(F)(F)F)c1`, the EC50 was > 26 µM (inactive).
Turning to `O=C(Nc1nnc(-c2ccco2)o1)c1ccc(Cl)cc1`, the EC50 is > 26 µM (inactive).
In the case of `O=C(Nc1nnc(CCc2ccccc2)s1)c1ccco1` it was > 26 µM (inactive); in that of `O=C(Nc1nc(-c2ccccn2)cs1)c1ccc(Br)s1`, 11.9 µM; in that of `O=C(Nc1sc2c(c1C(=O)c1ccc(Cl)cc1)CCCC2)c1cccnc1`, > 26 µM (inactive).
With `Clc1ccc2c(c1)C(c1cccs1)=NNC(c1cccnc1)=N2`, the EC50 was > 26 µM (inactive).
The result for `CC(C)N1CCc2c(sc(NC(=O)c3nc4ccccc4s3)c2C(N)=O)C1` reads > 26 µM (inactive).
In the case of `Cc1nc2ccccc2cc1OCc1ccc(F)cc1` it was > 26 µM (inactive).
In the case of `Cc1ccc(Nc2nc(N)c([N+](=O)[O-])c(N3CCC(C)CC3)n2)cc1C` it was > 26 µM (inactive); in that of `COc1ccc(-n2nc(C(=O)NCC(=O)N3CCN(c4ccccc4)CC3)c3ccccc3c2=O)c(OC)c1`, > 26 µM (inactive); in that of `CC(C)COCc1ccc(O)c2ncccc12`, 19.5 µM.
Take `O=C(Oc1c(Cl)cc(Cl)c2cccnc12)c1cccs1`: the EC50 was 1.98 µM.
Regarding `Cc1ccc(C(=O)c2coc3c2C(=O)C(=O)c2ccccc2-3)cc1`, the EC50 was > 26 µM (inactive).
In the case of `Nc1nccnc1C(=O)Nc1nnc(SCc2ccc(Cl)cc2)s1`, the EC50 was > 26 µM (inactive).
As to `Cc1ccc(/C=C/C(=O)c2ccccc(=O)c2O)cc1C`, the EC50 was > 26 µM (inactive).
Take `Cc1ccc(C(=O)Nc2cccc(-c3cn4ccccc4n3)c2)cc1`: the EC50 was > 26 µM (inactive).
With `CCOC(=O)N1C(=O)C2(CCCCC2)N(c2ccc(C)cc2)C1=S`, the EC50 was 0.888 µM.
As for `c1ccc2c(c1)OCC(CNc1ncnc3sccc13)O2` (configuration not stated), the EC50 is > 26 µM (inactive).
The result for `O=C(Nc1nnc(-c2ccc3c(c2)CCCC3)o1)c1ccc(Cl)cc1Cl` reads 18.4 µM.
The result for `CCOC(=O)c1c(-c2ccccc2Cl)cn2ccccc12` reads > 26 µM (inactive).
In the case of `COc1ccc(-c2nnc(NC(=O)c3ccc(F)cc3)o2)cc1`, the EC50 is > 26 µM (inactive).
The result for `CCc1ccc2c(c1)/C(=C/C(=O)c1cccs1)C(=O)N2` reads > 26 µM (inactive); that for `COc1cc2c(cc1NC(=O)c1ccco1)CCCC2`, > 26 µM (inactive).
For `O=C(NNC1=C(C(=O)C(F)(F)F)CCC1)c1ccc(Cl)cc1`, the EC50 is > 26 µM (inactive).
The result for `O=C1/C(=C\c2ccccc2)CCc2c1[nH]c1ccccc21` reads > 26 µM (inactive); that for `CCCC(=O)NC(c1ccc(Cl)cc1)c1ccc2cccnc2c1O` (configuration not stated), 21.3 µM.
